Measurements reported in ChEMBL document CHEMBL1134496, “An optimized protein kinase C activating diacylglycerol combining high binding affinity (Ki) with reduced lipophilicity (log P)” (J Med Chem, 2001).

assay: Partition coefficient (logP); format: physicochemical; details: octanol/water

| Compound | logP |
| --- | --- |
| CCCC(=O)O[C@@H]1[C@@H](C)[C@@]2(O)[C@@H](C=C(CO)C[C@]3(O)C(=O)C(C)=C[C@@H]23)[C@@H]2C(C)(C)[C@]12OC(=O)CCC | 3.4 |
| CC(C)C(CC(=O)OC[C@H](CO)OC(=O)CC(C(C)C)C(C)C)C(C)C | 5.79 |
| CC(C)CC(=O)OC[C@H](CO)OC(=O)CC(C)C | 2.16 |
| CC(C)CC(=O)OC[C@H](CO)OC(=O)CC(C(C)C)C(C)C | 3.97 |
| CC(C)=CC(=O)OC[C@H](CO)OC(=O)CC(C)C | 2.07 |
| CC(C)CC(=O)O[C@@H](CO)COC(=O)CC(C(C)C)C(C)C | 3.97 |
| CC(C)C(=CC(=O)OC[C@H](CO)OC(=O)CC(C(C)C)C(C)C)C(C)C | 5.71 |
| CC(C)C(=CC(=O)OC[C@H](CO)OC(=O)C=C(C(C)C)C(C)C)C(C)C | 5.62 |
| CC(C)C(=CC(=O)O[C@@H](CO)COC(=O)CC(C(C)C)C(C)C)C(C)C | 5.71 |
| CC(C)=CC(=O)O[C@@H](CO)COC(=O)CC(C(C)C)C(C)C | 3.88 |
| CC(C)CC(=O)OC[C@H](CO)OC(=O)C=C(C(C)C)C(C)C | 3.89 |
| CCCCCCCC(=O)OC[C@H](CO)OC(=O)CCCCCCC | 5.3 |
| CC(C)CC(=O)O[C@@H](CO)COC(=O)C=C(C(C)C)C(C)C | 3.89 |
| CC(C)=CC(=O)O[C@@H](CO)COC(=O)C=C(C(C)C)C(C)C | 3.8 |
| CC(C)=CC(=O)OC[C@H](CO)OC(=O)C=C(C)C | 1.99 |
| CC(C)=CC(=O)O[C@@H](CO)COC(=O)CC(C)C | 2.07 |
| CC(C)=CC(=O)OC[C@H](CO)OC(=O)CC(C(C)C)C(C)C | 3.88 |
| CC(C)=CC(=O)OC[C@H](CO)OC(=O)C=C(C(C)C)C(C)C | 3.8 |
| CCCCCCCC/C=C/CCCCCCCC(=O)OC[C@H](CO)OC(C)=O | 7 |
| CC(=O)O[C@@]12C[C@@H](C)[C@@]3(O)[C@@H](C=C(CO)C[C@]4(O)C(=O)C(C)=C[C@@H]34)[C@@H]1C2(C)C [PROSTRATIN] | 1.9 |
